Experimental data from BigSolDB 2.1.

NC(N)=C([N+](=O)[O-])[N+](=O)[O-]
Settings	solubility (mole fraction)
in 1,4-dioxane, 298.15 K	7.2e-05
in 1,4-dioxane, 314.15 K	0.000102
in 1,4-dioxane, 326.85 K	0.000143
in 1,4-dioxane, 339.65 K	0.000215
in 1,4-dioxane, 341.45 K	0.000257
in 1,4-dioxane, 347.55 K	0.000315
in 1,4-dioxane, 358.35 K	0.000357
in DEF, 298.35 K	0.0702
in DEF, 314.15 K	0.0824
in DEF, 324.95 K	0.0914
in DEF, 340.15 K	0.102
in DEF, 349.85 K	0.112
in DEF, 367.45 K	0.15
in DMF, 297.15 K	0.0946
in DMF, 310.75 K	0.109
in DMF, 327.85 K	0.122
in DMF, 340.15 K	0.136
in DMF, 352.75 K	0.148
in DMF, 361.05 K	0.161
in DMF, 365.15 K	0.173
in DMSO, 293.75 K	0.183
in DMSO, 303.85 K	0.188
in DMSO, 312.15 K	0.193
in DMSO, 319.15 K	0.204
in DMSO, 328.65 K	0.214
in DMSO, 339.85 K	0.224
in DMSO, 350.15 K	0.233
in DMSO, 354.15 K	0.238
in DMSO, 358.15 K	0.242
in DMSO, 367.15 K	0.261
in NMP, 295.05 K	0.163
in NMP, 318.15 K	0.186
in NMP, 344.45 K	0.207
in NMP, 363.85 K	0.227
in NMP, 371.75 K	0.246
in cyclohexanone, 291.95 K	0.00244
in cyclohexanone, 320.85 K	0.00434
in cyclohexanone, 330.95 K	0.00521
in cyclohexanone, 335.65 K	0.0061
in cyclohexanone, 343.15 K	0.00693
in cyclohexanone, 360.85 K	0.0104
in cyclohexanone, 370.35 K	0.0138
in ethyl acetate, 296.15 K	0.000116
in ethyl acetate, 304.95 K	0.000187
in ethyl acetate, 314.75 K	0.00027
in ethyl acetate, 318.15 K	0.000282
in ethyl acetate, 324.35 K	0.000332
in ethyl acetate, 326.55 K	0.000368
in ethyl acetate, 334.15 K	0.000444
in ethyl acetate, 344.65 K	0.000544
in gamma-butyrolactone, 300.15 K	0.0064
in gamma-butyrolactone, 304.15 K	0.0077
in gamma-butyrolactone, 324.55 K	0.0128
in gamma-butyrolactone, 332.55 K	0.0153
in gamma-butyrolactone, 336.45 K	0.0178
in gamma-butyrolactone, 343.45 K	0.0202
in gamma-butyrolactone, 346.25 K	0.0227
in gamma-butyrolactone, 350.85 K	0.0252
in gamma-butyrolactone, 357.85 K	0.0313
in gamma-butyrolactone, 368.55 K	0.0373
in water, 296.15 K	2e-05
in water, 303.45 K	3.5e-05
in water, 310.75 K	6e-05
in water, 318.65 K	0.000122
in water, 326.15 K	0.000154
in water, 328.55 K	0.000198
in water, 337.95 K	0.000277
in water, 343.15 K	0.000365
in water, 348.75 K	0.000504
